Reference: patent US8153686B2 (Theravance, Inc., priority 2008, dated 2012)
Like-named read-outs stand apart in the source and are kept apart here.

Assays:
[1] = biological target: T1, human mu opioid receptor (Homo sapiens, UniProt P35372); assay: Radioligand binding assay, human mu opioid receptor
[2] = biological target: T1, human mu opioid receptor; assay: Human mu [35S]GTPγS nucleotide exchange assay (agonist mediated activation); format: biochemical; details: read-out: intrinsic activity (IA)
[3] = tested on: loperamide-induced delayed gastric emptying; assay: Rat gastric emptying assay (reversal of loperamide-induced delayed gastric emptying); format: in vivo; details: administered orally, loperamide 1 mg/kg s.c., gastric emptying model
Description: Assay 3: Rat Model of In Vivo Efficacy In this assay the efficacy of test compounds was evaluated in a model of gastrointestinal transit, which evaluates peripheral activity. This study was approved by the Institutional Animal Care and Use Committee at […]. and conformed to the Guide for the Care and Use of Laboratory Animals published by the National Academy of Sciences (©1996). a. Rat Gastric Emptying Assay Test compounds were evaluated in the rat gastric emptying assay to determine their ability to reverse loperamide-induced delayed gastric emptying. Rats were fasted up overnight prior to administration of test compounds or vehicle by intravenous, subcutaneous, intramuscular or oral routes of administration at doses ranging from 0.001 to about 30 milligrams/kilogram (mg/kg). The administration of test compound was followed by subcutaneous administration of loperamide at a dose of 1 mg/kg or vehicle. Five minutes post loperamide or vehicle administration, a non-nutritive, non-absorbable charcoal meal was administered via oral gavage and animals were allowed free access to water for the sixty minute duration of the experiment. Animals were then euthanized via carbon dioxide asphyxiation followed by thoracotomy and the stomach was carefully excised. The stomach was ligated at the lower esophageal sphincter and the pyloric sphincter to prevent additional emptying during tissue removal. Gastric weight was then determined after removal of the ligatures. b. Data Analysis and Results Data was analyzed using the GraphPad Prism Software package (GraphPad Software, Inc., San Diego, Calif.). Percent reversal curves were constructed by non-linear regression analysis using the sigmoidal dose response (variable slope) model and best-fit ID50 values were calculated. Curve minima and maxima were fixed to loperamide control values (indicating 0% reversal) and vehicle controls (indicating 100% reversal), respectively. Results are expressed as ID50, the dose required for 50% reversal of the effects of loperamide, in milligrams per kilogram.

[4] = displacement of [3H]-Diprenorphine 0.5 nM, CHO-K1 cell membranes, read-out: pKi at the human mu opioid receptor (converted)
[5] = bound [35S]GTPγS relative to DAMGO (IA=100), CHO-K1 membranes expressing human mu opioid receptor

T1 sequence (P35372 whole entry): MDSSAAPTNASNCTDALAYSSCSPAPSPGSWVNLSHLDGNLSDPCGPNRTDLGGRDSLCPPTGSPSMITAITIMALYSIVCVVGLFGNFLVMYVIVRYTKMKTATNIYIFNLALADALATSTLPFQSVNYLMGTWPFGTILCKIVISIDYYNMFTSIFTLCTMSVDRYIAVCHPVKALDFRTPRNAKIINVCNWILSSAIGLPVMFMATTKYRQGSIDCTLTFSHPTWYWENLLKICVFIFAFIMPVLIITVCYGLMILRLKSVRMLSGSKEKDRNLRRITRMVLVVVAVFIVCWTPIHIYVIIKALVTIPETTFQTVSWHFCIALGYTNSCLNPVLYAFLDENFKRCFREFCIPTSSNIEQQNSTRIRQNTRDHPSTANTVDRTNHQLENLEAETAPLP

| Ki [1, 4] [nM] | Emax [2, 5] [%] | Compound | ID50, dose required for 50% reversal of the effects of loperamide [3] [mg/kg] | Ki [1] [nM] | Emax [2] [%] |
| --- | --- | --- | --- | --- | --- |
| 0.2 | 1 | CO[C@@H]1Cc2ccc(C(N)=O)cc2C(C)(C)[C@H]1NCCCNC(=O)CC(C)(C)C (relative stereo) [Example 11, trans-7-[3-(3,3-Dimethyl-butyrylamino)-propylamino]-6-methoxy-8,8-dimethyl-5,6,7,8-tetrahydro-naphthalene-2-carboxylic acid amide] | 0.4 |  |  |
| 0.126 | -2 | CO[C@@H]1Cc2ccc(C(N)=O)cc2C(C)(C)[C@H]1NCCCNC(=O)c1ccccc1 (relative stereo) [Example 16, trans-7-(3-Benzoylamino-propylamino)-6-methoxy-8,8-dimethyl-5,6,7,8-tetrahydro-naphthalene-2-carboxylic acid amide] | 0.63 |  |  |
| 0.0631 |  | CO[C@H]1Cc2ccc(C(N)=O)cc2C(C)(C)[C@@H]1NCCCNC(=O)CC(C)(C)C [Example 12, (6S,7S)-7-[3-(3,3-Dimethyl-butyrylamino)-propylamino]-6-methoxy-8,8-dimethyl-5,6,7,8-tetrahydro-naphthalene-2-carboxylic acid amide] | 0.11 |  |  |

Continued, molecule first:

| Compound | Ki [1, 4] [nM] | Emax [2, 5] [%] | ID50, dose required for 50% reversal of the effects of loperamide [3] [mg/kg] | Ki [1] [nM] | Emax [2] [%] |
| --- | --- | --- | --- | --- | --- |
| CO[C@@H]1Cc2ccc(C(N)=O)cc2C(C)(C)[C@H]1NCCCNC(=O)C1CCCCC1 (relative stereo) [Example 1, trans-7-[3-(Cyclohexanecarbonyl-amino)-propylamino]-6-methoxy-8,8-dimethyl-5,6,7,8-tetrahydro-naphthalene-2-carboxylic acid amide] | 0.158 | 10 | 0.5 |  |  |
| COC1Cc2ccc(C(N)=O)cc2C(C)(C)C1NC[C@H](N)Cc1ccccc1 (single isomer, unassigned) [Example 8] |  |  |  | 1.58 | -7 |
